Data from patent publication US4994465A, “Antihyperlipidemic and antiatherosclerotic trisubstituted urea compounds” (Warner-Lambert Company, priority 1990, dated 1991).

Each compound was assayed against T1, acyl-CoA:cholesterol acyltransferase (ACAT) (Oryctolagus cuniculus, UniProt G1SFD9) (assay: ACAT inhibition in vitro: radiolabeled cholesterol oleate formed from radiolabeled oleic acid in rabbit intestinal microsomes). Conditions: concentration required to inhibit 50% […] of the enzyme.
T1 construct: a tissue preparation containing rabbit intestinal microsomes; from tissue; host or cells: rabbit intestinal microsomes
T1 sequence (G1SFD9 1-524): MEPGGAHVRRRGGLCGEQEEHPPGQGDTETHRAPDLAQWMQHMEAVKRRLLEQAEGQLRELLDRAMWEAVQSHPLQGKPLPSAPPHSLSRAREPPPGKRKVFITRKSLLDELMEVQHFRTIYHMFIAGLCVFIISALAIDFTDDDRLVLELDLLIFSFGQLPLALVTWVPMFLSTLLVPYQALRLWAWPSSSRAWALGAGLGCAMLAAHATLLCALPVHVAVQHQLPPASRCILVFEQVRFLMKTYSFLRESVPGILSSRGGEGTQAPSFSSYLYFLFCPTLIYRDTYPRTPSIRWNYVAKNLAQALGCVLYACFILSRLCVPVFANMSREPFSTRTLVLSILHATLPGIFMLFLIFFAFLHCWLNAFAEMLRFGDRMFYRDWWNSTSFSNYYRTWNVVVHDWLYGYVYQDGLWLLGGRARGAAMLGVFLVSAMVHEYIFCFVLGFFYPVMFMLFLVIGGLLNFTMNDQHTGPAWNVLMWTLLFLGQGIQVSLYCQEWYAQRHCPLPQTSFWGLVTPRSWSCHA
Format: biochemical
Procedure: The ability of representative compounds of the present invention to inhibit ACAT was measured using an in vitro test more fully described in Field, F. J. and Salone, R. G., Biochemica et Biophysica 712:557-570 (1982). The test assesses the ability of a test compound to inhibit the acylation of cholesterol by oleic acid by measuring the amount of radiolabeled cholesterol oleate formed from radiolabeled oleic acid in a tissue preparation containing rabbit intestinal microsomes.
The data appear in Table 1 where they are expressed in IC50 values; i.e., the concentration of test compound required to inhibit 50% […] of the enzyme.

SMILES	IC50 [nM]
O=C(Nc1ccc(F)cc1F)N(Cc1ccccc1)CC(c1ccccc1)c1ccccc1 [Example 1, N'-(2,4-difluorophenyl)-N-benzyl-N-[(2,2-diphenyl)ethyl]urea]	290
Cc1cccc(C)c1NC(=O)N(Cc1ccccc1)CC(c1ccccc1)c1ccccc1 [Example 2, N'-[(2,6-dimethyl)phenyl]-N-benzyl-N-[(2,2-diphenyl)ethyl]urea]	1370
CC(C)c1cccc(C(C)C)c1NC(=O)N(Cc1ccccc1)CC(c1ccccc1)c1ccccc1 [Example 3, N'-[2,6-bis(1-methylethyl)phenyl]-N-benzyl-N-[(2,2-diphenyl)ethyl]urea]	1300
CCCCCCCN(CC1(c2ccccc2)CCCC1)C(=O)Nc1ccc(F)cc1F [Example 11, N'-(2,4-difluorophenyl)-N-heptyl-N-[(1-phenylcyclopentyl)methyl]urea]	310
CCCCCCCN(CC(c1ccccc1)c1ccccc1)C(=O)Nc1c(C)cccc1C [Example 12, N'-[(2,6-dimethyl)phenyl]-N-heptyl-N-[(2,2-diphenyl)ethyl]urea]	1300
CCCCCCCN(CC(c1ccccc1)c1ccccc1)C(=O)Nc1ccc(F)cc1F [Example 13, N'-(2,4-difluorophenyl)-N-heptyl-N-[(2,2-diphenyl)ethyl]urea]	170

The remaining lines, values ahead:

IC50 [nM]	SMILES
90	O=C(Nc1ccc(F)cc1F)N(Cc1ccccc1)CC1(c2ccccc2)CCCC1 [Example 4, N'-(2,4-difluorophenyl)-N-benzyl-N-[(1-phenylcyclopentyl)methyl]urea]
51	O=C(Nc1c(Cl)cccc1Cl)N(Cc1ccccc1)CC1(c2ccccc2)CCCC1 [Example 5, N'-(2,6-dichlorophenyl)-N-benzyl-N-[(1-phenylcyclopentyl)methyl]urea]
80	Cc1cc(C)c(NC(=O)N(Cc2ccccc2)CC2(c3ccccc3)CCCC2)c(C)c1 [Example 6, N'-(2,4,6-trimethylphenyl)-N-benzyl-N-[(1-phenylcyclopentyl)methyl]urea]
170	CC(C)c1cccc(C(C)C)c1NC(=O)N(Cc1ccccc1)CC1(c2ccccc2)CCCC1 [Example 7, N'-[2,6-bis(1-methylethyl)phenyl]-N-benzyl-N-[(1-phenylcyclopentyl)methyl]urea]
59	Cc1cccc(C)c1NC(=O)N(Cc1ccccc1)CC1(c2ccccc2)CCCC1 [Example 8, N'-[(2,6-dimethyl)phenyl]-N-benzyl-N-[(1-phenylcyclopentyl)methyl]urea]
110	CCCCCCCN(CC1(c2ccccc2)CCCC1)C(=O)Nc1c(C(C)C)cccc1C(C)C [Example 9, N'-[2,6-bis(1-methylethyl)phenyl]-N-heptyl-N-[(1phenylcyclopentyl)methyl]urea]
61	CCCCCCCN(CC1(c2ccccc2)CCCC1)C(=O)Nc1c(C)cccc1C [Example 10]
